Experimental data taken from patent US20090270352A1, “Tenofovir Disoproxil Hemi-Fumaric Acid Co-Crystal” (ULTIMORPHIX TECHNOLOGIES B.V., priority 2007, published 2009).
Where a name gives a salt, the structure may show the parent alone.

Experiment: Dynamic Vapour Sorption (DVS) moisture sorption isotherm
Assay type: physicochemical
Conditions: for total uptake of water vapours: DVS, 25° C., relative humidity 0% to 95% in steps of 5%, 1 h per step, sorption-desorption cycle
Description: Moisture sorption isotherms were measured using a DVS-1 system of Surface Measurement Systems (London, UK). Differences in moisture uptake of various forms of a solid material indicate differences in the relative stabilities of the various solid forms for increasing relative humidity. The experiment was carried out at a constant temperature of 25° C.
A sample of about 11.5 mg of form TDFA 2:1 was spread in the DVS pan. The sample was dried at 0% RH for 7 h. Subsequently the relative humidity of the chamber was increased in steps of 5% units from 0% to 95% in order to monitor the sorption of water vapours. The samples remained in each of the steps for 1 h. Following, desorption was monitored by decreasing the relative humidity to 0% in steps of 5% units and remaining at each step for 1 h. The total uptake of water vapours was about 0.8%, which is line with the industry standard for hygroscopicity. In a similar DVS experiment using the starting material as purchased, the total vapour intake was about 4%, which is undesirable in formulation and requires additional measures.

total uptake of water vapours	changes in the structure by XRPD at the end of the DVS experiment (solid material measured by XRPD after the DVS sorption-desorption cycle (FIG. 4))	Structure (SMILES)
about 0.8%	no any changes in the structure	CC(C)OC(=O)OCOP(=O)(CO[C@H](C)Cn1cnc2c(N)ncnc21)OCOC(=O)OC(C)C.CC(C)OC(=O)OCOP(=O)(CO[C@H](C)Cn1cnc2c(N)ncnc21)OCOC(=O)OC(C)C.O=C(O)/C=C/C(=O)O [TDFA 2:1, co-crystal of tenofovir disoproxil and fumaric acid in a 2:1 molar ratio]
about 4%		CC(C)OC(=O)OCOP(=O)(CO[C@H](C)Cn1cnc2c(N)ncnc21)OCOC(=O)OC(C)C [starting material, 9-[(R)-2-[[bis[[(isopropoxycarbonyl)oxy]methoxy]phosphinyl]-methoxy]propyl] adenine fumarate (1:1), reference compound]
